From PubChem BioAssay (NCI)
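96-well plates; 48 h exposure; 5 concentrations. Endpoints by linear interpolation between flanking doses. Not reached: highest tested concentration assigned. TGI: total growth inhibition.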

Columns and labels:
Assay in all cases: NCI tumour cell line growth inhibition, 48 h
SR leukemia = tested on: SR leukemia
COLO 205 colon = tested on: COLO 205 colon
SNB-19 CNS = tested on: SNB-19 CNS
KM12 colon = tested on: KM12 colon
SF-295 CNS = tested on: SF-295 CNS
786-0 renal = tested on: 786-0 renal
LOX IMVI melanoma = tested on: LOX IMVI melanoma
NCI-H460 lung = tested on: NCI-H460 lung
TK-10 renal = tested on: TK-10 renal
HCT-116 colon = tested on: HCT-116 colon
HCT-15 colon = tested on: HCT-15 colon
UACC-62 melanoma = tested on: UACC-62 melanoma
SN12C renal = tested on: SN12C renal
HS 578T breast = tested on: HS 578T breast
M14 melanoma = tested on: M14 melanoma
MOLT-4 leukemia = tested on: MOLT-4 leukemia
MDA-N = tested on: MDA-N
A549 NSCLC = tested on: A549 NSCLC
BT-549 breast = tested on: BT-549 breast

Row | SMILES | TGI (SR leukemia) [µM] | TGI (COLO 205 colon) [µM] | TGI (SNB-19 CNS) [µM] | TGI (KM12 colon) [µM] | TGI (SF-295 CNS) [µM] | TGI (786-0 renal) [µM] | TGI (LOX IMVI melanoma) [µM] | TGI (NCI-H460 lung) [µM] | TGI (TK-10 renal) [µM] | TGI (HCT-116 colon) [µM] | TGI (HCT-15 colon) [µM] | TGI (UACC-62 melanoma) [µM] | TGI (SN12C renal) [µM] | TGI (HS 578T breast) [µM] | TGI (M14 melanoma) [µM] | TGI (MOLT-4 leukemia) [µM] | TGI (MDA-N) [µM] | TGI (A549 NSCLC) [µM] | TGI (BT-549 breast) [µM]
1 | CNC(=O)NCCN1CC2CCC(CC2)C1 | > 10 | > 10 | > 10 | > 10 | > 10 | > 10 | > 10 | > 10 | > 10 | > 10 | > 10 | > 10 | > 10 | > 10 | > 10 | > 10 | > 10 | > 10 | 
2 | C/C=C1\CC2C(=O)CCC2C2c3ccccc3OC12 (configuration not stated) | > 100 | > 100 | > 100 | > 100 | > 100 | > 100 | > 100 | > 100 | > 100 | > 100 | > 100 | > 100 | 0.821 | > 100 | > 100 | > 100 | 0.24 | > 100 | 
3 | CC(C)CC(=O)NC(C(=O)NC(C(=O)NC(CC(C)C)C(O)CC(=O)NC(C)C(=O)NC(CC(C)C)C(O)CC(=O)O)C(C)C)C(C)C (configuration not stated) | > 100 | > 100 | > 100 | > 100 | > 100 | > 100 | > 100 | > 100 | > 100 | > 100 | > 100 | > 100 | > 100 |  | > 100 | > 100 | > 100 | > 100 | > 100
4 | Cn1ncc2c(Nc3cccc(Cl)c3)nc(Nc3cccc(Cl)c3)nc21 |  | > 53.8 | > 94 | > 42.2 | 21.1 | 4.84 | > 85.7 | > 30.9 | 27.9 | > 58.3 | 30.9 | 38.5 | > 67.5 | 43.9 | > 58.4 | 47.4 |  | > 53.4 | 59
5 | CN(C)CCCNc1ncnc2c1ncn2C1OC(CO)C(O)C1O (configuration not stated) | > 100 | > 100 | > 100 | > 100 | > 100 | > 100 | > 100 | > 100 | > 100 | > 100 | > 100 | > 100 | > 100 |  | > 100 | > 100 | > 100 | > 100 | > 100
6 | O=C(c1nc2ccccc2[nH]c1=O)C(O)c1ccco1 (configuration not stated) |  | > 100 | > 100 | > 100 | > 100 | > 100 | > 100 | > 100 | > 100 | > 100 | > 100 | > 100 | > 100 |  | > 100 | > 100 |  | > 100 | 
7 | O=C1/C(=C/c2ccco2)N=C2Sc3c(nc[nH]c3=O)N12 |  | > 100 | > 100 | > 100 | > 100 | > 100 | > 100 |  | > 100 | > 100 | > 100 |  | > 100 | > 100 | > 100 | > 100 | > 100 | > 100 | 
8 | O=C(CCCN1CCC2(CC1)CC(=O)N(N1CCOCC1)C2=O)c1ccc(F)cc1 |  | > 100 | > 100 | > 100 | > 100 | > 100 | > 100 | > 100 | > 100 | > 100 | > 100 | > 100 | > 100 | > 100 | > 100 | > 100 | > 100 | > 100 | > 100
9 | C=C/C(C)=C\CC1[C@](C)(O)CC[C@H]2C(C)(C)C(O)CC[C@]12C (some centres not stated) | > 100 | > 100 | > 100 | > 100 | > 100 | > 100 | > 100 | > 100 | > 100 | > 100 | > 100 | > 100 | > 100 | > 100 | > 100 | > 100 | > 100 | > 100 | 
10 | CC(=NNC(=S)Nc1cccc(C)c1)c1cccc(C(C)=NNC(=S)Nc2cccc(C)c2)n1 | 40.8 | 38.5 | > 100 | 59.3 | 34 | 63.6 | 85.3 | > 100 | 61.5 | 37.8 | > 100 | > 100 | > 100 | > 100 | 39.3 | 61.6 | > 100 | 87.1 | 
11 | C[Si](C)(N[Si](C)(C)OCCc1ccccc1)OCCc1ccccc1 |  |  | > 100 | > 100 | > 100 | > 100 | > 100 | > 100 | > 100 | > 100 | > 100 | > 100 | > 100 |  | > 100 |  | > 100 |  | > 100
12 | Cc1c2c(OCC(O)CN3CCN(c4ccccc4)CC3)nn(C)c(=O)c2c(C)n1-c1ccccc1 (configuration not stated) |  | 39.6 | > 100 | > 100 | 51.3 | 42.3 |  | 57.7 | > 100 | 31.3 | 43.5 | 32 | 36.5 | 65.9 | 30.7 | 88.9 | 35.4 | 73.7 | 47.6
13 | COc1ccc2[nH]cc(C(=O)C(=O)NC34CC5CC(CC(C5)C3)C4)c2c1 |  | > 100 | > 100 | > 100 | > 54.6 | 47.5 | > 100 | 91.3 | > 100 | > 100 | > 90.3 | > 69.4 | 51.9 | > 91.1 | > 100 | 16.6 | > 100 | > 100 | > 100
